Assay results taken from publication PMC10864275, “Binding kinetics drive G protein subtype selectivity at the β1-adrenergic receptor” (Nature Communications, 2024).

Biological target: T1, β1AR-E signalling via Gs (Meleagris gallopavo, UniProt P07700, C116L/C358A/DEL244-271/F327A/F338A/M179L/M281A/M44L/M48L/R68S)
T1 construct: expressed in transfected cells; host or cells: HEK293T
Type: cell-based, turkey
Settings: G protein not given
Source text: We next assessed G protein coupling using the TRUPATH BRET2 biosensor assay[46] (Supplementary Fig. 2c) expressed in HEK293T cells, allowing examination of signalling via the canonical coupling partner Gs. […] Therefore, the TRUPATH and ligand binding assays confirmed that reversal of the thermostabilising mutation increased receptor activity without impacting ligand affinity. Also, although less efficacious, the thermostabilised β1AR-W construct still retained functional G protein coupling.
For Gq, a constitutively active mutated version (R183Q) was used to increase the sensitivity for detection of Gq activation. After 24 h, cells were harvested and seeded onto PLL-coated white 96-well plates (Greiner Bio-One) at a density of 50,000 cells per well. […] The plate was then incubated for 10 min at room temperature in the dark.

T1 sequence (P07700 other isoform, or with tags, fused parts or gaps with the stated changes): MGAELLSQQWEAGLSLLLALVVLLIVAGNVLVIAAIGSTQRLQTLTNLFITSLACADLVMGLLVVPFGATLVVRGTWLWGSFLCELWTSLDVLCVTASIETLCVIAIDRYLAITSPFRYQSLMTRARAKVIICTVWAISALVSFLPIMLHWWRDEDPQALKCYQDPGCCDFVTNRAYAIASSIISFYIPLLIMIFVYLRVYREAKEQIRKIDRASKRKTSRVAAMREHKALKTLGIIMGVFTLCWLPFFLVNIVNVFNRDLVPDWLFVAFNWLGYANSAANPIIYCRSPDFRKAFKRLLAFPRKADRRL

SMILES | potency in TRUPATH assays relative to isoprenaline
CC(C)(C)NCC(O)c1ccc(O)c(CO)c1 (centres unmarked) [Sal., salbutamol] | decreased potency
O=C(NCCNCC(O)COc1ccc(O)cc1)N1CCOCC1 (centres unmarked) [Xam., xamoterol] | decreased potency
